# Measurements: patent publication US8436189B2, “Heterocyclic alkanol derivatives” (Bayer Intellectual Property GmbH, priority 2010, dated 2013)
# What was measured:
# [1] = test system: Puccinia triticina; assay: Puccinia triticina test (wheat)/protective; assay type: in vivo; conditions: protective spray, application rate 500 ppm, evaluation 8 days after inoculation, 0% = control, 100% = no infection
# Experimental: (§1) Solvent: 49 parts by weight of N,N-dimethylacetamide
# (§2) Emulsifier: 1 part by weight of alkylaryl polyglycol ether
# (§3) To produce an appropriate active ingredient formulation, 1 part by weight of active ingredient is mixed with the specified amounts of solvent and emulsifier, and the concentrate is diluted with water to the desired concentration. To test for protective activity, young plants are sprayed with the formulation of active ingredient at the stated application rate. After the spray coating has dried on, the plants are sprayed with spores with a spore suspension of Puccinia triticina. The plants remain in an incubation cabin at 20° C. and 100% relative air humidity for 48 hours. The plants are placed in a greenhouse at a temperature of about 20° C. and a relative air humidity of about 80%. Evaluation follows 8 days after the inoculation. 0% means an efficacy which corresponds to that of the control, whereas an efficacy of 100% means that no infection is observed. In this test, the following inventive compounds, at an active ingredient concentration of 500 ppm, show an efficacy of 70% or more.
# [2] = test system: Blumeria graminis f sp. hordei; assay: Blumeria graminis test (barley)/protective; assay type: in vivo; conditions: protective spray, application rate 500 ppm, evaluation 7 days after inoculation, 0% = control, 100% = no infection
# Experimental: Solvent: 49 parts by weight of N,N-dimethylacetamide Emulsifier: 1 part by weight of alkylaryl polyglycol ether To produce an appropriate active ingredient formulation, 1 part by weight of active ingredient is mixed with the specified amounts of solvent and emulsifier, and the concentrate is diluted with water to the desired concentration. To test for protective activity, young plants are sprayed with the formulation of active ingredient at the stated application rate. After the spray coating has dried on, the plants are dusted with spores of Blumeria graminis f sp. hordei. The plants are placed in a greenhouse at a temperature of about 18° C. and a relative air humidity of about 80% to promote the development of mildew pustules. Evaluation follows 7 days after the inoculation. 0% means an efficacy which corresponds to that of the control, whereas an efficacy of 100% means that no infection is observed. In this test, the following inventive compounds, at an active ingredient concentration of 500 ppm, show an efficacy of 70% or more.
# [3] = test system: Leptosphaeria nodorum; assay: Leptosphaeria nodorum test (wheat)/protective; assay type: in vivo; conditions: protective spray, application rate 500 ppm, evaluation 8 days after inoculation, 0% = control, 100% = no infection
# Experimental: as §1, §2
# as §3, with “of Leptosphaeria nodorum.” for “of Puccinia triticina.”, “about 22°” for “about 20°”
# [4] = log P by HPLC on reversed-phase columns (C18), EEC Directive 79/831 Annex V.A8; assay type: physicochemical; conditions: method [a]: LC-MS, acidic range, pH 2.7, 0.1% aqueous formic acid / acetonitrile, gradient 10% to 95% acetonitrile
# Experimental: The log P values were measured in accordance with EEC Directive 79/831 Annex V.A8 by HPLC (High Performance Liquid Chromatography) using reversed-phase columns (C18) by the following methods: [a] The LC-MS determination in the acidic range is effected at pH 2.7 with 0.1% aqueous formic acid and acetonitrile (contains 0.1% formic acid) as eluents; linear gradient from 10% acetonitrile to 95% acetonitrile.
# [5] = test system: Venturia inaequalis; assay: Venturia test (apple)/protective; assay type: in vivo; conditions: protective spray, application rate 100 ppm, evaluation 10 days after inoculation, 0% = control, 100% = no infection
# Experimental: Solvent: 24.5 parts by weight of acetone • 24.5 parts by weight of dimethylacetamide Emulsifier: 1 part by weight of alkylaryl polyglycol ether To produce an appropriate active ingredient formulation, 1 part by weight of active ingredient is mixed with the specified amounts of solvent and emulsifier, and the concentrate is diluted with water to the desired concentration. To test for protective activity, young plants are sprayed with the active ingredient formulation at the stated application rate. After the spray coating has dried on, the plants are inoculated with an aqueous conidia suspension of the apple scab pathogen Venturia inaequalis and then remain in an incubation cabin at about 20° C. and 100% relative air humidity for 1 day. The plants are then placed in a greenhouse at about 21° C. and a relative air humidity of about 90%. Evaluation follows 10 days after the inoculation. 0% means an efficacy which corresponds to that of the control, whereas an efficacy of 100% means that no infection is observed. In this test, the following inventive compounds, at an active ingredient concentration of 100 ppm, show an efficacy of 70% or more.
# [6] = test system: Uromyces appendiculatus; assay: Uromyces test (bean)/protective; assay type: in vivo; conditions: protective spray, application rate 100 ppm, evaluation 10 days after inoculation, 0% = control, 100% = no infection
# Experimental: Solvent: 24.5 parts by weight of acetone • 24.5 parts by weight of dimethylacetamide Emulsifier: 1 part by weight of alkylaryl polyglycol ether To produce an appropriate active ingredient formulation, 1 part by weight of active ingredient is mixed with the specified amounts of solvent and emulsifier, and the concentrate is diluted with water to the desired concentration. To test for protective activity, young plants are sprayed with the active ingredient formulation at the stated application rate. After the spray coating has dried on, the plants are inoculated with an aqueous spore suspension of the bean rust pathogen Uromyces appendiculatus and then remain in an incubation cabin at about 20° C. and 100% relative air humidity for 1 day. The plants are then placed in the greenhouse at about 21° C. and a relative air humidity of about 90%. Evaluation follows 10 days after the inoculation. 0% means an efficacy which corresponds to that of the control, whereas an efficacy of 100% means that no infection is observed. In this test, the following inventive compounds, at an active ingredient concentration of 100 ppm, show an efficacy of 70% or more.
logP [4],SMILES,further results
–,CC(C)(C)C(O)(COc1ccc(Br)cc1Cl)c1cncs1 (stereo not drawn) [Compound No. 2],Efficacy (%) [1]: 95%; Efficacy (%) [2]: 100%; Efficacy (%) [3]: 92%
–,CC(C)(C)C(O)(COc1ccc(Br)cc1F)c1cncs1 (stereo not drawn) [Compound No. 3],Efficacy (%) [1]: 100%; Efficacy (%) [2]: 100%; Efficacy (%) [3]: 100%
–,CC(C)(C)C(O)(Cc1ccc(F)cc1F)c1cncs1 (stereo not drawn) [Compound No. 31],chromatographic logP ([4]; reversed-phase HPLC column (C18)): 3.04
–,CC(C)(C)C(O)(COc1ccc(I)cc1F)c1cncs1 (stereo not drawn) [compound 1],Efficacy (%) [5]: 97%; Efficacy (%) [1]: 100%; Efficacy (%) [6]: 100%; Efficacy (%) [2]: 100%; Efficacy (%) [3]: 100%
logP 4.14^[a]; [M + H]^+ = 438.,CC(C)(C)C(O)(COc1ccc(I)cc1Cl)c1cncs1 (stereo not drawn) [compound 5],–
logP 4.03^[a]; [M + H]^+ = 434,CC1(C(O)(COc2cc(Br)cc(Br)c2)c2cncs2)CC1 (stereo not drawn) [compound 7],–
logP 3.88^[a]; [M + H]^+ = 416,Cc1cc(I)ccc1OCC(O)(c1cncs1)C1(C)CC1 (stereo not drawn) [compound 10],–
"logP 3.30^[a]; [M + H]^+ = 372, 374",CC1(C(O)(COc2ccc(Br)c(F)c2)c2cncs2)CC1 (stereo not drawn) [compound 12],–
"logP 3.70^[a]; [M + H]^+ = 422, 424",CC1(C(O)(COc2ccc(Br)c(C(F)(F)F)c2)c2cncs2)CC1 (stereo not drawn) [compound 13],–
logP 3.70^[a]; [M + H]^+ = 392.,COc1cc(OC(F)(F)F)ccc1OCC(O)(c1cncs1)C(C)(C)C (stereo not drawn) [compound 14],–
logP 3.11^[a]; [M + H]^+ = 447,CC1(C(O)(COc2ccc(I)c([N+](=O)[O-])c2)c2cncs2)CC1 (stereo not drawn) [compound 15],–
logP 3.96^[a]; [M + H]^+ = 396.,CC(C)(C)C(O)(COc1ccc(SC(F)(F)F)c(F)c1)c1cncs1 (stereo not drawn) [compound 16],–
logP 2.21^[a]; [M + H]^+ = 370.,Cc1cc(OCC(O)(c2cncs2)C(C)(C)C)ccc1S(C)(=O)=O (stereo not drawn) [compound 17],–
logP 1.90^[a]; [M + H]^+ = 354.,Cc1cc(OCC(O)(c2cncs2)C(C)(C)C)ccc1[S+](C)[O-] (stereo not drawn) [compound 18],–
logP 3.63^[a]; [M + H]^+ = 424.,Cc1cc(S(=O)(=O)C(F)(F)F)ccc1OCC(O)(c1cncs1)C(C)(C)C (stereo not drawn) [compound 19],–
logP 3.37^[a]; [M + H]^+ = 440.,COc1cc(S(=O)(=O)C(F)(F)F)ccc1OCC(O)(c1cncs1)C(C)(C)C (stereo not drawn) [compound 20],–
logP 4.31^[a]; [M + H]^+ = 412.,CC(C)(C)C(O)(COc1ccc(SC(F)(F)F)c(Cl)c1)c1cncs1 (stereo not drawn) [compound 21],–

logP [4],SMILES,further results
logP 4.35^[a]; [M + H]^+ = 392.,Cc1cc(OCC(O)(c2cncs2)C(C)(C)C)ccc1SC(F)(F)F (stereo not drawn) [compound 22],–
logP 4.43^[a]; [M + H]^+ = 392.,Cc1cc(SC(F)(F)F)ccc1OCC(O)(c1cncs1)C(C)(C)C (stereo not drawn) [compound 23],–
logP 4.02^[a]; [M + H]^+ = 396.,CC(C)(C)C(O)(COc1ccc(OC(F)(F)F)c(Cl)c1)c1cncs1 (stereo not drawn) [compound 24],–
logP 3.77^[a]; [M + H]^+ = 326.,Cc1cc(Cl)ccc1OCC(O)(c1cncs1)C(C)(C)C (stereo not drawn) [compound 25],–
logP 3.37^[a]; [M + H]^+ = 330.,CC(C)(C)C(O)(COc1ccc(Cl)cc1F)c1cncs1 (stereo not drawn) [compound 26],–
logP 3.74^[a]; [M + H]^+ = 326.,Cc1cc(OCC(O)(c2cncs2)C(C)(C)C)ccc1Cl (stereo not drawn) [compound 27],–
logP 3.63^[a]; [M + H]^+ = 338.,CSc1ccc(OCC(O)(c2cncs2)C(C)(C)C)cc1C (stereo not drawn) [compound 28],–
logP 4.10^[a]; [M + H]^+ = 396.,CC(C)(C)C(O)(COc1ccc(OC(F)(F)F)cc1Cl)c1cncs1 (stereo not drawn) [compound 29],–
"logP 3.32^[a]; [M + H]+ = 372, 374",CC1(C(O)(COc2ccc(Br)cc2F)c2cncs2)CC1 (stereo not drawn) [compound 32],–
logP 3.84^[a],CC(C)(C)C(O)(COc1ccc(Cl)cc1Cl)c1cncs1 (stereo not drawn) [compound 33],–
logP 2.98^[a],CC(C)(C)C(O)(COc1ccc(F)cc1F)c1cncs1 (stereo not drawn) [compound 34],–
logP 3.26^[a],COc1cc(Br)ccc1OCC(O)(c1cncs1)C1(C)CC1 (stereo not drawn) [compound 35],–
logP 3.16^[a],COc1cc(OCC(O)(c2cncs2)C2(C)CC2)ccc1Br (stereo not drawn) [compound 36],–
logP 3.96^[a],CC(C)(C)C(O)(COc1ccc(Cl)cc1C(F)(F)F)c1cncs1 (stereo not drawn) [compound 37],–
logP 3.72^[a],CC(C)(C)C(O)(COc1ccc(Cl)c(Cl)c1)c1cncs1 (stereo not drawn) [compound 39],–
logP 4.12^[a],CC(C)(C)C(O)(COc1ccc(OC(F)(F)F)c(Br)c1)c1cncs1 (stereo not drawn) [compound 41],–
logP 4.12^[a],Cc1cc(OC(F)(F)F)ccc1OCC(O)(c1cncs1)C(C)(C)C (stereo not drawn) [compound 42],–
